Patent US5585382A, “Polycyclic and heterocyclic chromophores for bis-imide tumoricidals” (The DuPont Merck Pharmaceutical Company, priority 1995, dated 1996)
Like-named read-outs stand apart in the source and are kept apart here.

Tests used:
[1] = system: Clone A human colon cancer cells; experiment: In vitro growth inhibition of Clone A cells (MTT, 72 hr); assay type: cell-based; conditions: read-out: Clone A IC50
Outline: (§1)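 Cells seeded on day 0 (1×10^3 L1210 or 8×10^2 Clone A per well), graded compound concentrations added on day 1, then 72 hr at 37 °C. MTT 4 h, formazan dissolved in acidic isopropanol, read at 570/630 nm; IC50 from curve fit as half-maximal inhibition of population doublings, eight replicates.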

[2] = Solubility in water
[3] = system: MX-1 human mammary carcinoma; experiment: In vivo human tumor xenograft MX-1 in nude mice; conditions: for Tumor Growth Inhibition activity against MX-1 (in words): NCI criteria
Excerpt: (§2) The DLD-2 human colon tumor and MX-1 human mammary carcinoma, were originally obtained from a surgically-removed primary colon carcinoma or breast tumor respectively. The human tumor lines were maintained by serial passage in athymic nude mice. The MX-1 human mammary carcinoma is an established tumor used by the NCI. The DLD-2 human colon tumor has been well characterized. (Dexter, D. L.; Spremulli, E. N.; Matook, G. M.; Diamond, I.; Calabresi, P. Cancer Research 1982, 42, 5010; Dexter, D. L.; Barbosa, J. A.; Calabresi, P. Cancer Research 1979, 39, 1020.)
(§3) The mice used in these experiments were outbred Swiss mice or CD-1 mice bearing the nude (nu/nu) gene. On Day 0, male and female mice weighing 22-30 g are inoculated with 0.2 mL of a 25% tumor mince. This mince is prepared by mincing fresh tumor tissue, grown subcutaneously in passage mice, in sterile physiological saline. Palpable tumors weighing approximately 50 mg appear in the mice within 7-10 days after inoculation. The mice are pair matched by tumor weight and sex into groups of ten each and the test compounds and vehicle control are administered intravenously (i.v.) once daily for nine consecutive days. A >20% decrease in body weight on Day 5 following compound administration is considered an indication of toxicity. Tumor measurements and body weights are recorded once a week. Fifteen to eighteen days after the initial injection the mice are weighed, sacrificed, and the tumors excised and weighed.
(§4) The efficacy of the test compounds is determined by the extent of tumor growth inhibition in treated versus vehicle-treated control mice. Initial tumor weights (mg) are calculated from the tumor dimensions (mm) obtained from caliper measurements, using the formula for a prolate ellipsoid (mg of tumor weight=(length×width^2)/2). Net tumor weights are calculated for each of the treated groups and the vehicle-treated control group by subtracting the initial tumor weight from the final tumor weight (Day 15-18). Results are expressed as a percentage decrease relative to the mean tumor weight for the control vehicle-treated group.
(§5) Tumor Growth Inhibition= [formula]
(§6) The evaluation criteria of the National Cancer Institute for activity in in vivo cancer models were used. Tumor growth inhibition of 58-89% against the various xenografts is considered moderate activity, and inhibition of ≥90% is considered good to excellent activity. Actual tumor regressions (IR=incomplete regression; FR=full regression) indicate excellent to outstanding activity.

[4] = system: Murine leukemia L1210 cells; experiment: In vitro growth inhibition of L1210 cells (MTT, 72 hr); assay type: cell-based; conditions: Mus musculus, read-out: L1210 IC50
Outline: as §1

[5] = system: DLD-2 human colon tumor; experiment: In vivo human tumor xenograft DLD-2 in nude mice; conditions: for Tumor Growth Inhibition activity against DLD-2 (in words): NCI criteria
Excerpt: as §2, §3, §4, §5, §6

[6] = physchem; conditions: water
[7] = Mus musculus, iv, 216 h, read-out: MX-1 percent tumor growth inhibition
[8] = Mus musculus, iv, 216 h, read-out: MX-1 tumor regressions, IR=incomplete regression
[9] = i.v. once daily for nine days, nude mice
[10] = 12.5 mg/kg, i.v. once daily for nine days, nude mice
[11] = Mus musculus, DLD2, iv, 216 h, read-out: DLD-2 percent tumor growth inhibition
[12] = Mus musculus, DLD2, iv, 216 h, 12.5 mg/kg, i.v. once daily for nine days, nude mice, read-out: DLD-2 percent tumor growth inhibition

Row | SMILES | IC50 ([1]; 72 h) [ng/mL] | solubility [2] [µg/mL] | Tumor Growth Inhibition activity against MX-1 (in words) [3, 9] | IC50 ([4]; L1210, 72 h) [ng/mL] | Tumor Growth Inhibition activity against DLD-2 (in words) [5, 9] | IC50 ([1]; Clone A cells, 72 hr, MTT) [ng/mL] | IC50 ([4]; L1210 cells, 72 hr, MTT) [ng/mL] | other results
1 | CS(=O)(=O)O.CS(=O)(=O)O.Cc1cnc2c(c1)cc1c3c(cc([N+](=O)[O-])cc32)C(=O)N([C@H](C)CNCCNC[C@@H](C)N2C(=O)c3cc([N+](=O)[O-])cc4c3c(cc3cc(C)cnc34)C2=O)C1=O [Example 13, (R, R) -1,2-bis-[2-(3-Nitro-7-methyl-5-azaphenanthrene-1, 10-dicarboximido)propylamino]ethane Dihydromethanesulfonate] | 30 | 7100 | moderate to excellent | 65 | moderate to excellent |  |  | inhibition in vivo at 12.5 mg/kg [3, 7]: 99%; responders at 12.5 mg/kg [3, 8]: 77.8%; DLD-2 tumor regressions, IR=incomplete regression [5, 10]: 1/9; inhibition in vivo at 12.5 mg/kg [5, 11]: 90%
2 | CS(=O)(=O)O.CS(=O)(=O)O.Cc1cnc2c(c1)cc1c3c(cc([N+](=O)[O-])cc32)C(=O)N([C@H](C)CNC[C@@H](C)NC[C@@H](C)N2C(=O)c3cc([N+](=O)[O-])cc4c3c(cc3cc(C)cnc34)C2=O)C1=O [Example 25, (R,R)-1,2-bis-[2-(3-Nitro-7-methyl-5-azaphenanthrene-1, 10dicarboximido)propylamino]-(R)-1-methylethane Dihydromethanesulfonate] | 10 | 4820 | moderate to excellent | 48 |  |  |  | MX-1 tumor regressions, FR=full regression ([3]; 25 mg/kg, i.v. once daily for nine days, nude mice): 1/8; inhibition in vivo at 25 mg/kg [3, 7]: 99%; responders at 25 mg/kg [3, 8]: 75%; inhibition in vivo at 25 mg/kg [5, 11]: 97%
3 | CS(=O)(=O)O.O=C1c2cccc3cc([N+](=O)[O-])cc(c23)C(=O)N1CCCCNCCCN1C(=O)c2cc([N+](=O)[O-])cc3c2c(cc2cccnc23)C1=O [Example 111, 4-[3-(3-Nitro-5-azaphenanthrene-1,10-dicarboximido)propylamino]-1-(3-nitronaphthalene-1,8-dicarboximido)butane Hydromethanesulfonate] | 2 | 240 | moderate to excellent | 3 | moderate to excellent |  |  | MX-1 tumor regressions, FR=full regression ([3]; 20 mg/kg, i.v. once daily for nine days, nude mice): 1/9; inhibition in vivo at 20 mg/kg [3, 7]: 99%; responders at 20 mg/kg [3, 8]: 77.8%; DLD-2 tumor regressions, IR=incomplete regression ([5]; 18 mg/kg, i.v. once daily for nine days, nude mice): 2/7; inhibition in vivo at 18 mg/kg [5, 11]: 99%
4 | CS(=O)(=O)O.CS(=O)(=O)O.Nc1cc2c3c(cc4cccnc4c3c1)C(=O)N(CCCNCCCCN1C(=O)c3cccc4cc([N+](=O)[O-])cc(c34)C1=O)C2=O [Example 112, 4-[3-(3-Amino-5-azaphenanthrene-1,10-dicarboximido)propylamino]-1-(3-nitronaphthalene-1,8-dicarboximido)butane Dihydromethanesulfonate] |  | 7500 | moderate to excellent |  |  | 7 | 20 | inhibition in vivo at 25 mg/kg ([3]; Mus musculus, iv, 216 h, 25 mg/kg, i.v. once daily for nine days, nude mice, read-out: MX-1 percent tumor growth inhibition): 98%; responders at 25 mg/kg ([3]; Mus musculus, iv, 216 h, 25 mg/kg, i.v. once daily for nine days, nude mice, read-out: MX-1 tumor regressions, IR=incomplete regression (converted)): 37.5%; inhibition in vivo at 12.5 mg/kg [5, 12]: 48%
5 | CS(=O)(=O)O.O=C1c2cccc3cc([N+](=O)[O-])cc(c23)C(=O)N1CCCCNCCCN1C(=O)c2cccc3c2c(cc2ncccc23)C1=O [Example 114, 4-[3-(8-Azaphenanthrene-1,10-dicarboximido)propylamino]-1-(3-nitronaphthalene-1,8-dicarboximido)butane Hydromethanesulfonate] |  | 680 | moderate to excellent |  | moderate to excellent | 1 | < 10 | inhibition in vivo at 12 mg/kg ([3]; Mus musculus, iv, 216 h, 12 mg/kg, i.v. once daily for nine days, nude mice, read-out: MX-1 percent tumor growth inhibition): 98%; responders at 12 mg/kg ([3]; Mus musculus, iv, 216 h, 12 mg/kg, i.v. once daily for nine days, nude mice, read-out: MX-1 tumor regressions, IR=incomplete regression (converted)): 62.5%; DLD-2 tumor regressions, IR=incomplete regression [5, 10]: 4/8; inhibition in vivo at 12.5 mg/kg [5, 12]: 99%
6 | CS(=O)(=O)O.O=C1c2cccc3cc([N+](=O)[O-])cc(c23)C(=O)N1CCCCNCCCN1C(=O)c2cc([N+](=O)[O-])cc3c2c(cc2ncccc23)C1=O [Example 115, 4-[3-(3-Nitro-8-azaphenanthrene-1,10-dicarboximido)propylamino]-1-(3-nitronaphthalene-1,8dicarboximido)butane Hydromethanesulfonate] | 1 | 150 | moderate to excellent | 3 | moderate to excellent |  |  | inhibition in vivo at 6 mg/kg [3, 7]: 95%; responders at 6 mg/kg [3, 8]: 12.5%; inhibition in vivo at 10 mg/kg [5, 11]: 90%
7 | CS(=O)(=O)O.CS(=O)(=O)O.C[C@H](CNCCNC[C@@H](C)N1C(=O)c2cccc3c2c(cc2ccncc23)C1=O)N1C(=O)c2cccc3cc([N+](=O)[O-])cc(c23)C1=O [Example 118, (R,R)-1-[2-(6-Azaphenanthrene-1,10-dicarboximido)propylamino]-2-[2-(3-nitronaphthalene-1,8-dicarboximido)propylamino]ethane Dihydromethanesulfonate] |  |  | moderate to excellent |  | moderate to excellent | 0.8 | 29 | solubility [6]: 65100 µg/mL; responders at 3 mg/kg ([3]; Mus musculus, iv, 216 h, 3 mg/kg, i.v. once daily for nine days, nude mice, read-out: MX-1 tumor regressions, IR=incomplete regression (converted)): 100%; DLD-2 tumor regressions, IR=incomplete regression ([5]; 6 mg/kg, i.v. once daily for nine days, nude mice): 7/9; inhibition in vivo at 6 mg/kg ([5]; Mus musculus, DLD2, iv, 216 h, 6 mg/kg, i.v. once daily for nine days, nude mice, read-out: DLD-2 percent tumor growth inhibition): 99%
